{"source": "patent US10618903B2", "about": "“Heteroaryl substituted aminopyridine compounds” (BRISTOL-MYERS SQUIBB COMPANY, priority 2015, dated 2020)", "key": {"IRAK4": {"biological_target": "IRAK4 (Homo sapiens (Human), UniProt Q9NWZ3)", "sequence (Q9NWZ3 whole entry)": "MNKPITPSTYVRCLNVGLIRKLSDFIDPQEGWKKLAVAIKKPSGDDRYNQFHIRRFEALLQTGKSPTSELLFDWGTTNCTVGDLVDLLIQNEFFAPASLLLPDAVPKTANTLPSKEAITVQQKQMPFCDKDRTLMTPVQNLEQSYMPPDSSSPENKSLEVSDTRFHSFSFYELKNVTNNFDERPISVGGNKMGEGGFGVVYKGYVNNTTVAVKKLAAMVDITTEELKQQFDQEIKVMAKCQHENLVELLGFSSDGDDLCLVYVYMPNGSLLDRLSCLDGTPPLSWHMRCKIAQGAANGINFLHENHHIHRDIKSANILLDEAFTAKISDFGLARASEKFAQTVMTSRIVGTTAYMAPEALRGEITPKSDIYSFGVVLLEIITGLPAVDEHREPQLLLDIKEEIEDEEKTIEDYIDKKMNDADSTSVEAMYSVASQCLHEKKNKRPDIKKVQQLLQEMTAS", "experiment": "IRAK4 Inhibition Assay", "type": "biochemical", "details": "ATP 500 μM; IRAK4 0.6 nM", "outline": "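Readout: electrophoretic (LabChip) separation of fluorescent peptide substrate from phosphorylated product after EDTA quench. Reactions ran 60 min at room temperature with 0.6 nM IRAK4, 1.5 μM peptide and 500 μM ATP; inhibition referenced to no-enzyme (100%) and vehicle (0%) controls.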"}, "[1]": {"system": "IL-6 levels in human whole blood stimulated with a TLR2 agonist", "experiment": "IRAK4 Whole Blood Assay (lipoteichoic acid/TLR2-stimulated IL-6)", "type": "cell-based", "details": "lipoteichoic acid 10 μg/mL, IL-6 readout", "outline": "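IL-6 was quantified by cytometric bead assay in supernatants of human blood (ACD-A) stimulated for 5 h with lipoteichoic acid at 10 μg/mL final. Compound exposure preceded stimulation for 60 min at 37 °C, 5% CO2.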"}, "Caco-2 cells": {"system": "Caco-2 cells", "experiment": "Caco Permeability Assay", "type": "in vitro ADME", "details": "Caco-2 cells, 3 μM compound"}, "Caco Permeability Assay": {"experiment": "Caco Permeability Assay", "type": "in vitro ADME", "details": "human, Caco-2, Caco-2 cells, 3 μM compound"}}}
{"smiles": "CC(C)(O)[C@H](F)CNC(=O)c1cnc(-c2cnn3cc(C#N)cnc23)cc1Nc1cnn(CC(F)(F)F)c1", "note": "[Example 241, (R)-6-(6-cyanopyrazolo[1,5-a]pyrimidin-3-yl)-N-(2-fluoro-3-hydroxy-3-methylbutyl)-4-((1-(2,2,2-trifluoroethyl)-1H-pyrazol-4-yl)amino)nicotinamide]", "values": [{"measurement": "IC50", "setting": "IRAK4", "result": 2, "unit": "nM"}, {"measurement": "EC50", "setting": "[1]", "result": 130, "unit": "nM"}, {"measurement": "Caco-2 Permeability", "setting": "Caco-2 cells", "result": "<1.5", "unit": "×10⁻⁶ cm/s"}]}
{"smiles": "CC1(Nc2cc(-c3cnc4cc(Cl)cnn34)ncc2C(=O)NC[C@H](F)C(C)(C)O)CC1", "note": "[Example 207, (S)-6-(7-chloroimidazo[1,2-b]pyridazin-3-yl)-N-(2-fluoro-3-hydroxy-3-methylbutyl)-4-((1-methylcyclopropyl)amino)nicotinamide]", "values": [{"measurement": "EC50", "setting": "[1]", "result": 260, "unit": "nM"}, {"measurement": "Caco-2 Permeability", "setting": "Caco-2 cells", "result": 9.7, "unit": "×10⁻⁶ cm/s"}]}
{"smiles": "CC(C)(O)[C@H](F)CNC(=O)c1cnc(-c2cnn3cc(Cl)cnc23)cc1NC1CCC(F)C1", "note": "(stereo partly drawn) [Example 84, 6-(6-chloropyrazolo[1,5-a]pyrimidin-3-yl)-N—((R)-2-fluoro-3-hydroxy-3-methylbutyl)-4-((3-fluorocyclopentyl)amino)nicotinamide]", "values": [{"measurement": "IC50", "setting": "IRAK4", "result": 2, "unit": "nM"}, {"measurement": "EC50", "setting": "[1]", "result": 320, "unit": "nM"}, {"measurement": "Caco-2 Permeability", "setting": "Caco-2 cells", "result": 12, "unit": "×10⁻⁶ cm/s"}]}
{"smiles": "CCCNc1cc(-c2cnn3cc(Cl)cnc23)ncc1C(=O)NC[C@@H](F)C(C)(C)O", "note": "[Example 159, (R)-6-(6-chloropyrazolo[1,5-a]pyrimidin-3-yl)-N-(2-fluoro-3-hydroxy-3-methylbutyl)-4-(propylamino)nicotinamide]", "values": [{"measurement": "EC50", "setting": "[1]; Homo sapiens", "result": 1000, "unit": "nM"}, {"measurement": "Caco-2 Permeability", "setting": "Caco-2 cells", "result": 9.5, "unit": "×10⁻⁶ cm/s"}]}
{"smiles": "CCCNc1cc(-c2cnn3cc(Cl)cnc23)ncc1C(=O)NC[C@@H](F)C(C)(C)O", "note": "[Example 66, (R)-6-(6-chloropyrazolo[1,5-a]pyrimidin-3-yl)-N-(2-fluoro-3-hydroxy-3-methylbutyl)-4-(propylamino)nicotinamide]", "values": [{"measurement": "IC50", "setting": "IRAK4", "result": 3, "unit": "nM"}, {"measurement": "Caco-2 Permeability", "setting": "Caco-2 cells", "result": 21.2, "unit": "×10⁻⁶ cm/s"}]}
{"smiles": "CC(C)(O)[C@H](F)CNC(=O)c1cnc(-c2cnn3cc(Cl)cnc23)cc1NCCC(F)(F)F", "note": "[Example 46, (R)-6-(6-chloropyrazolo[1,5-a]pyrimidin-3-yl)-N-(2-fluoro-3-hydroxy-3-methylbutyl)-4-((3,3,3-trifluoropropyl)amino) nicotinamide]", "values": [{"measurement": "IC50", "setting": "IRAK4", "result": 5, "unit": "nM"}, {"measurement": "EC50", "setting": "[1]", "result": 1970, "unit": "nM"}, {"measurement": "Caco-2 Permeability", "setting": "Caco-2 cells", "result": 24.1, "unit": "×10⁻⁶ cm/s"}]}
{"smiles": "CCn1cc(Nc2cc(-c3cnc4cc(C#N)cnn34)ncc2C(=O)NC[C@@H](F)C(C)(C)O)cn1", "note": "[Example 267, (R)-6-(7-cyanoimidazo[1,2-b]pyridazin-3-yl)-4-((1-ethyl-1H-pyrazol-4-yl)amino)-N-(2-fluoro-3-hydroxy-3-methylbutyl)nicotinamide]", "values": [{"measurement": "IC50", "setting": "IRAK4", "result": 2, "unit": "nM"}, {"measurement": "EC50", "setting": "[1]; Homo sapiens", "result": 130, "unit": "nM"}, {"measurement": "Papp at 2 h, 3 µM", "setting": "Caco Permeability Assay", "result": "< 1.5", "unit": "×10⁻⁶ cm/s"}]}
{"smiles": "CC(C)(O)[C@H](F)CNC(=O)c1cnc(-c2cnc3cc(Cl)cnn23)cc1Nc1cnn(C(F)F)c1", "note": "[Example 270, (R)-6-(7-chloroimidazo[1,2-b]pyridazin-3-yl)-4-((1-(difluoromethyl)-1H-pyrazol-4-yl)amino)-N-(2-fluoro-3-hydroxy-3-methylbutyl) nicotinamide]", "values": [{"measurement": "IC50", "setting": "IRAK4", "result": 3, "unit": "nM"}, {"measurement": "EC50", "setting": "[1]; Homo sapiens", "result": 820, "unit": "nM"}, {"measurement": "Papp at 2 h, 3 µM", "setting": "Caco Permeability Assay", "result": 7.8, "unit": "×10⁻⁶ cm/s"}]}
